In brackets after ≈: the same amount, converted by molar mass.
Tests used:
Type in all cases: functional
Streptococcus pneumoniae [1] = test: Ratio of clarithromycin MIC to compound MIC for erythromycin-resistant Streptococcus pneumoniae A22072 expressing mef gene
Streptococcus pneumoniae [2] = test: Antibacterial activity against erythromycin-susceptible Streptococcus pneumoniae ATCC 49619 by broth microdilution method
Streptococcus pneumoniae [3] = test: Ratio of erythromycin MIC to compound MIC for erythromycin-resistant Streptococcus pneumoniae A22072 expressing mef gene
Streptococcus pneumoniae [4] = test: Antibacterial activity against erythromycin-resistant Streptococcus pneumoniae AB11 expressing erm and mef gene by broth microdilution method
Streptococcus pneumoniae [5] = test: Antibacterial activity against erythromycin-resistant Streptococcus pneumoniae A22072 expressing mef gene by broth microdilution method
Staphylococcus aureus [6] = test: Antibacterial activity against erythromycin-susceptible Staphylococcus aureus ATCC 25923 by broth microdilution method
Streptococcus pneumoniae [7] = test: Antibacterial activity against erythromycin-resistant Streptococcus pneumoniae B1 expressing erm gene by broth microdilution method
Streptococcus pneumoniae [8] = test: Ratio of azithromycin MIC to compound MIC for erythromycin-resistant Streptococcus pneumoniae B1 expressing erm gene
Streptococcus pneumoniae [9] = test: Ratio of clarithromycin MIC to compound MIC for erythromycin-resistant Streptococcus pneumoniae B1 expressing erm gene
Streptococcus pneumoniae [10] = test: Ratio of erythromycin MIC to compound MIC for erythromycin-resistant Streptococcus pneumoniae B1 expressing erm gene
Streptococcus pneumoniae [11] = test: Ratio of clarithromycin MIC to compound MIC for erythromycin-susceptible Streptococcus pneumoniae ATCC 49619
Staphylococcus aureus [12] = test: Ratio of clarithromycin MIC to compound MIC for erythromycin-susceptible Staphylococcus aureus ATCC 25923

Compound | Ratio (Streptococcus pneumoniae [1]) | MIC (Streptococcus pneumoniae [2]) [µg/mL] | Ratio (Streptococcus pneumoniae [3]) | MIC (Streptococcus pneumoniae [4]) [µg/mL] | MIC (Streptococcus pneumoniae [5]) [µg/mL] | MIC (Staphylococcus aureus [6]) [µg/mL] | MIC (Streptococcus pneumoniae [7]) [µg/mL] | Ratio (Streptococcus pneumoniae [8]) | Ratio (Streptococcus pneumoniae [9]) | Ratio (Streptococcus pneumoniae [10]) | Ratio (Streptococcus pneumoniae [11]) | Ratio (Staphylococcus aureus [12])
CC[C@H]1OC(=O)[C@H](C)[C@@H](O[C@H]2C[C@@](C)(OC)[C@@H](OC(=O)NNC(=O)c3ccc4[nH]c(-c5ccc([N+](=O)[O-])cc5)nc4c3)[C@H](C)O2)[C@H](C)[C@@H](O[C@@H]2O[C@H](C)C[C@H](N(C)C)[C@H]2O)[C@](C)(OC)C[C@@H](C)C(=O)[C@H](C)[C@@H](O)[C@]1(C)O | 133 | 0.25 (≈ 0.233 µM) | 267 | 16 (≈ 14.9 µM) | 0.03 (≈ 0.028 µM) | 1 (≈ 0.934 µM) | 16 (≈ 14.9 µM) |  |  |  |  | 
CC[C@H]1OC(=O)[C@H](C)[C@@H](O[C@H]2C[C@@](C)(OC)[C@@H](OC(=O)NNC(=O)c3ccc4[nH]c(-c5ccc(C)cc5)nc4c3)[C@H](C)O2)[C@H](C)[C@@H](O[C@@H]2O[C@H](C)C[C@H](N(C)C)[C@H]2O)[C@](C)(OC)C[C@@H](C)C(=O)[C@H](C)[C@@H](O)[C@]1(C)O | 133 | 0.12 (≈ 0.115 µM) | 267 | 16 (≈ 15.4 µM) | 0.03 (≈ 0.0288 µM) | 0.25 (≈ 0.24 µM) | 2 (≈ 1.92 µM) | 64 | 64 | 64 |  | 
CC[C@H]1OC(=O)[C@H](C)[C@@H](O[C@H]2C[C@@](C)(OC)[C@@H](OC(=O)NNC(=O)c3ccc4[nH]c(-c5ccccc5OC)nc4c3)[C@H](C)O2)[C@H](C)[C@@H](O[C@@H]2O[C@H](C)C[C@H](N(C)C)[C@H]2O)[C@](C)(OC)C[C@@H](C)C(=O)[C@H](C)[C@@H](O)[C@]1(C)O | 133 | 0.03 (≈ 0.0284 µM) | 267 | 16 (≈ 15.1 µM) | 0.03 (≈ 0.0284 µM) | 0.03 (≈ 0.0284 µM) | 2 (≈ 1.89 µM) | 64 | 64 | 64 | 4 | 4
CC[C@H]1OC(=O)[C@H](C)[C@@H](O[C@H]2C[C@@](C)(OC)[C@@H](OC(=O)NNC(=O)c3ccc4[nH]c(-c5ccccc5Cl)nc4c3)[C@H](C)O2)[C@H](C)[C@@H](O[C@@H]2O[C@H](C)C[C@H](N(C)C)[C@H]2O)[C@](C)(OC)C[C@@H](C)C(=O)[C@H](C)[C@@H](O)[C@]1(C)O | 133 | 0.03 (≈ 0.0283 µM) | 267 | 32 (≈ 30.2 µM) | 0.03 (≈ 0.0283 µM) | 0.06 (≈ 0.0566 µM) | 32 (≈ 30.2 µM) |  |  |  |  | 
CC[C@H]1OC(=O)[C@H](C)[C@@H](O[C@H]2C[C@@](C)(OC)[C@@H](OC(=O)NNC(=O)c3ccc4[nH]c(-c5ccc(Cl)cc5)nc4c3)[C@H](C)O2)[C@H](C)[C@@H](O[C@@H]2O[C@H](C)C[C@H](N(C)C)[C@H]2O)[C@](C)(OC)C[C@@H](C)C(=O)[C@H](C)[C@@H](O)[C@]1(C)O | 133 | 0.03 (≈ 0.0283 µM) | 267 | 16 (≈ 15.1 µM) | 0.03 (≈ 0.0283 µM) | 0.5 (≈ 0.471 µM) | 8 (≈ 7.54 µM) |  |  |  |  | 
